Assay [1] deals with ERK1/2 phosphorylation of p90RSK in A375 cells. Put plainly: Detection of total and phosphor-RSK by MSD ELISA (A375). Type of assay: cell-based. Conditions: Homo sapiens, A-375, read-out: ERK1/ERK2 PRSK A375 EC50. The method, boiled down: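 A375 cells serum-starved overnight in DMEM/0.1% FBS, then treated 2 h at 37° C with compound (1000× DMSO dilutions into medium). Lysates captured on RSK antibody-coated MSD plates; phospho-RSK (Ser380) and total RSK detected with SulfoTag secondary antibodies by electrochemiluminescence.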
(In general: ELISA stands for enzyme-linked immunosorbent assay.)

The target of the next assay is T1, MEK1 activated ERK1 (Homo sapiens, UniProt P27361).
T1 construct: purchased Millipore (Billerica, Mass.) 14-439-K
The assay can be described thus: Omnia continuous-read kinase assay for potency against MEK1 activated ERK1. Type of assay: biochemical. The settings on record: ATP at KM, WT. The method, boiled down: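 Apparent IC50 came from initial reaction slopes (RFU vs time) plotted against log inhibitor with a variable-slope fit. Reactions were started with ERK1 (4 nM final) added to 50 μM ATP, roughly at its appKM, and 10 μM Sox-conjugated ST17 peptide in 20 mM Tris pH 7.5, 5 mM MgCl2. Fluorescence was monitored every 71 seconds.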

T1 sequence (P27361 whole entry): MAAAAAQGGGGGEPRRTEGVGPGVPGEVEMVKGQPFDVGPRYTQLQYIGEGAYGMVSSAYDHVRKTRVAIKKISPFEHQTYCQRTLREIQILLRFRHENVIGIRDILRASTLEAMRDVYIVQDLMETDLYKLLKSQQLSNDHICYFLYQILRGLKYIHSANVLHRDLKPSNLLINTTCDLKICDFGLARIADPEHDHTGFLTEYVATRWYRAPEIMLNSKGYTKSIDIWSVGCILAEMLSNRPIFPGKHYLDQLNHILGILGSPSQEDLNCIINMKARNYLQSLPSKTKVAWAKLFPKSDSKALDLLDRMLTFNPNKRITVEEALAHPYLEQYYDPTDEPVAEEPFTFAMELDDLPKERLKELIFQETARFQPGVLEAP

By IC50 is commonly meant the concentration that inhibits the measured activity by half. Turning to `C=CC(=O)Nc1cc(OCCN2CCN(C(C)=O)CC2)ccc1Nc1nc(Nc2cc(OC)ncc2C)ncc1C(F)(F)F` [Compound I-416, N-(5-(2-(4-acetylpiperazin-1-yl)ethoxy)-2-((2-((2-methoxy-5-methylpyridin-4-yl)amino)-5-(trifluoromethyl)pyrimidin-4-yl)amino)phenyl)acrylamide], in assay [1], the EC50 was in the range of 101 to 500 nM. In addition, the IC50 at MEK1 activated ERK1 was less than 100 nM.

As to `C=CC(=O)Nc1cc(OCC(=O)N2CCN(C(C)=O)CC2)ccc1Nc1nc(Nc2cc(OC)ncc2OC)ncc1C(F)(F)F` [Compound I-415, N-(5-(2-(4-acetylpiperazin-1-yl)-2-oxoethoxy)-2-((2-((2,5-dimethoxypyridin-4-yl)amino)-5-(trifluoromethyl)pyrimidin-4-yl)amino)phenyl)acrylamide], the EC50 in assay [1] fell in the range of 501 to 999 nM. Besides, the IC50 at MEK1 activated ERK1 is less than 100 nM.

Turning to `C=CC(=O)Nc1cc(O[C@@H](C)C(=O)N2CCN(S(C)(=O)=O)CC2)ccc1Nc1nc(Nc2cc(OC)ncc2C)ncc1C(F)(F)F` [Compound I-426, (S)—N-(2-((2-((2-methoxy-5-methylpyridin-4-yl)amino)-5-(trifluoromethyl)pyrimidin-4-yl)amino)-5-((1-(4-(methylsulfonyl)piperazin-1-yl)-1-oxopropan-2-yl)oxy)phenyl)acrylamide], the EC50 in assay [1] lay in the range of 101 to 500 nM. Further, the IC50 on MEK1 activated ERK1 lay in the range of 501 to 999 nM.

For `C=CC(=O)Nc1cc(C)ccc1Nc1nc(Nc2cc(OC)ncc2CC)ncc1C(F)(F)F` [Compound I-408, N-(2-((2-((5-ethyl-2-methoxypyridin-4-yl)amino)-5-(trifluoromethyl)pyrimidin-4-yl)amino)-5-methylphenyl)acrylamide], the EC50 in assay [1] lay in the range of 101 to 500 nM. The IC50 on MEK1 activated ERK1 lay within 101 to 500 nM.

`C=CC(=O)Nc1cc(O[C@@H](C)C(N)=O)ccc1Nc1nc(Nc2cc(OC)ncc2C)ncc1C(F)(F)F` [Compound I-412, (S)—N-(5-((1-amino-1-oxopropan-2-yl)oxy)-2-((2-((2-methoxy-5-methylpyridin-4-yl)amino)-5-(trifluoromethyl)pyrimidin-4-yl)amino)phenyl)acrylamide]: the EC50 in assay [1] is less than 100 nM. On MEK1 activated ERK1, the IC50 is less than 100 nM.

Consider `C=CC(=O)Nc1cc(O[C@H](C)C(N)=O)ccc1Nc1nc(Nc2cc(OC)ncc2C)ncc1C(F)(F)F` [Compound I-413, (R)—N-(5-((1-amino-1-oxopropan-2-yl)oxy)-2-((2-((2-methoxy-5-methylpyridin-4-yl)amino)-5-(trifluoromethyl)pyrimidin-4-yl)amino)phenyl)acrylamide], for which, in assay [1], the EC50 is less than 100 nM. Moreover, the half-maximal inhibitory concentration (IC50) at MEK1 activated ERK1 was less than 100 nM.

Take `C=CC(=O)Nc1cc(O[C@H](C)C(=O)N2CCN(S(C)(=O)=O)CC2)ccc1Nc1nc(Nc2cc(OC)ncc2C)ncc1C(F)(F)F` [Compound I-410, (R)—N-(2-((2-((2-methoxy-5-methylpyridin-4-yl)amino)-5-(trifluoromethyl)pyrimidin-4-yl)amino)-5-((1-(4-(methylsulfonyl)piperazin-1-yl)-1-oxopropan-2-yl)oxy)phenyl)acrylamide]: the EC50 in assay [1] was 101 to 500 nM. Moreover, on MEK1 activated ERK1, the IC50 was less than 100 nM.

As for `C=CC(=O)Nc1cc(CN2CCN(C(C)=O)C[C@H]2C)ccc1Nc1nc(Nc2cc(OC)ncc2C)ncc1C(F)(F)F` [Compound I-422, (R)—N-(5-((4-acetyl-2-methylpiperazin-1-yl)methyl)-2-((2-((2-methoxy-5-methylpyridin-4-yl)amino)-5-(trifluoromethyl)pyrimidin-4-yl)amino)phenyl)acrylamide], the EC50 in assay [1] is 101 to 500 nM. Further, the IC50 on MEK1 activated ERK1 was less than 100 nM.

Regarding `C=CC(=O)Nc1cc(CN2CCN(C(=O)c3ccccn3)CC2)ccc1Nc1nc(Nc2cc(OC)ncc2C)ncc1C(F)(F)F` [Compound I-388, N-(2-((2-((2-methoxy-5-methylpyridin-4-yl)amino)-5-(trifluoromethyl)pyrimidin-4-yl)amino)-5-((4-picolinoylpiperazin-1-yl)methyl)phenyl)acrylamide], the EC50 in assay [1] is less than 100 nM. The IC50 on MEK1 activated ERK1 lay in the range of 101 to 500 nM.

Regarding `C=CC(=O)Nc1cc(C)ccc1Nc1nc(Nc2cc(C(F)(F)F)nn2C)ncc1C(F)(F)F` [Compound I-419, N-(5-methyl-2-((2-((1-methyl-3-(trifluoromethyl)-1H-pyrazol-5-yl)amino)-5-(trifluoromethyl)pyrimidin-4-yl)amino)phenyl)acrylamide], in assay [1], the EC50 is more than 1000 nM. Besides, the IC50 at MEK1 activated ERK1 was more than 1000 nM.

Regarding `C=CC(=O)Nc1c(Nc2nc(Nc3cc(OC)ncc3C)ncc2OC)cccc1OCc1nccs1` [Compound I-411, N-(2-((5-methoxy-2-((2-methoxy-5-methylpyridin-4-yl)amino)pyrimidin-4-yl)amino)-6-(thiazol-2-ylmethoxy)phenyl)acrylamide], the EC50 in assay [1] is more than 1000 nM. Moreover, the IC50 on MEK1 activated ERK1 is more than 1000 nM.

Regarding `C=CC(=O)Nc1cc(O[C@H](C)C(=O)N2CCN(C(C)=O)CC2)ccc1Nc1nc(Nc2cc(OC)ncc2C)ncc1C(F)(F)F` [Compound I-409, (R)—N-(5-((1-(4-acetylpiperazin-1-yl)-1-oxopropan-2-yl)oxy)-2-((2-((2-methoxy-5-methylpyridin-4-yl)amino)-5-(trifluoromethyl)pyrimidin-4-yl)amino)phenyl)acrylamide], the EC50 in assay [1] was more than 1000 nM. Further, the IC50 at MEK1 activated ERK1 was less than 100 nM.

On to `C=CC(=O)Nc1cc(C)ccc1Nc1nc(NC2COC2)ncc1C(F)(F)F` [Compound I-420, N-(5-methyl-2-((2-(oxetan-3-ylamino)-5-(trifluoromethyl)pyrimidin-4-yl)amino)phenyl)acrylamide], for which the EC50 in assay [1] is more than 1000 nM. Besides, on MEK1 activated ERK1, the IC50 is more than 1000 nM.

For `C=CC(=O)Nc1cc(CN2CCN(C(=O)c3ccccn3)CC2)ccc1Nc1nc(Nc2nc(OC)ncc2C)ncc1C(F)(F)F` [Compound I-391, N-(2-((2-((2-methoxy-5-methylpyrimidin-4-yl)amino)-5-(trifluoromethyl)pyrimidin-4-yl)amino)-5-((4-picolinoylpiperazin-1-yl)methyl)phenyl)acrylamide], in assay [1], the EC50 is more than 1000 nM. The IC50 at MEK1 activated ERK1 lay in the range of 101 to 500 nM.

Regarding `C=CC(=O)Nc1cc(C)ccc1Nc1nc(Nc2cc(C(=O)NC)nn2C)ncc1C(F)(F)F` [Compound I-424, 5-((4-((2-acrylamido-4-methylphenyl)amino)-5-(trifluoromethyl)pyrimidin-2-yl)amino)-N,1-dimethyl-1H-pyrazole-3-carboxamide], the EC50 in assay [1] was 501 to 999 nM. Besides, the IC50 on MEK1 activated ERK1 was more than 1000 nM.

For the compound `C=CC(=O)Nc1cc(C)ccc1Nc1nc(Nc2cc(C(N)=O)nn2C)ncc1C(F)(F)F` [Compound I-423, 5-((4-((2-acrylamido-4-methylphenyl)amino)-5-(trifluoromethyl)pyrimidin-2-yl)amino)-1-methyl-1H-pyrazole-3-carboxamide], the EC50 in assay [1] is more than 1000 nM. Also, on MEK1 activated ERK1, the IC50 was more than 1000 nM.

As to `C=CC(=O)Nc1cc(O[C@@H](C)C(=O)N2CCN(C(C)=O)CC2)ccc1Nc1nc(Nc2cc(OC)ncc2C)ncc1C(F)(F)F` [Compound I-425, (S)—N-(5-((1-(4-acetylpiperazin-1-yl)-1-oxopropan-2-yl)oxy)-2-((2-((2-methoxy-5-methylpyridin-4-yl)amino)-5-(trifluoromethyl)pyrimidin-4-yl)amino)phenyl)acrylamide], in assay [1], the EC50 lay within 501 to 999 nM. In addition, on MEK1 activated ERK1, the IC50 lay in the range of 101 to 500 nM.

For `C=CC(=O)Nc1cc(OC(F)(F)F)ccc1Nc1nc(Nc2cc(OC)ncc2C)ncc1C(F)(F)F` [Compound I-407, N-(2-((2-((2-methoxy-5-methylpyridin-4-yl)amino)-5-(trifluoromethyl)pyrimidin-4-yl)amino)-5-(trifluoromethoxy)phenyl)acrylamide], the EC50 in assay [1] was 101 to 500 nM. Also, the IC50 on MEK1 activated ERK1 is 101 to 500 nM.

In the case of `C=CC(=O)Nc1cc(CN2CCN(C(C)=O)C[C@@H]2C)ccc1Nc1nc(Nc2cc(OC)ncc2C)ncc1C(F)(F)F` [Compound I-421, (S)—N-(5-((4-acetyl-2-methylpiperazin-1-yl)methyl)-2-((2-((2-methoxy-5-methylpyridin-4-yl)amino)-5-(trifluoromethyl)pyrimidin-4-yl)amino)phenyl)acrylamide], in assay [1], the EC50 fell in the range of 101 to 500 nM. On MEK1 activated ERK1, the IC50 is less than 100 nM.

`C=CC(=O)Nc1cc(CCc2cnn(C)c2)ccc1Nc1nc(Nc2cc(OC)ncc2C)ncc1C(F)(F)F` [Compound I-427, N-(2-((2-((2-methoxy-5-methylpyridin-4-yl)amino)-5-(trifluoromethyl)pyrimidin-4-yl)amino)-5-(2-(1-methyl-1H-pyrazol-4-yl)ethyl)phenyl)acrylamide]: the EC50 in assay [1] lay in the range of 101 to 500 nM. Further, at MEK1 activated ERK1, the IC50 lay within 101 to 500 nM.

Take `C=CC(=O)Nc1cc(C)ccc1Nc1nc(Nc2cc(C(=O)OC)nn2C)ncc1C(F)(F)F` [Compound I-418, Methyl 5-((4-((2-acrylamido-4-methylphenyl)amino)-5-(trifluoromethyl)pyrimidin-2-yl)amino)-1-methyl-1H-pyrazole-3-carboxylate]: in assay [1], the EC50 is 501 to 999 nM. The IC50 on MEK1 activated ERK1 lay within 101 to 500 nM.

In the case of `C=CC(=O)Nc1cc(C)ccc1Nc1nc(NCC2COC2)ncc1C(F)(F)F` [Compound I-417, N-(5-methyl-2-((2-((oxetan-3-ylmethyl)amino)-5-(trifluoromethyl)pyrimidin-4-yl)amino)phenyl)acrylamide], the EC50 in assay [1] is more than 1000 nM. In addition, the IC50 on MEK1 activated ERK1 is more than 1000 nM.

The values above are taken from patent US9561228B2 (Celgene Avilomics Research, Inc., priority 2013, dated 2017).
